Data from ChEMBL document CHEMBL5321192, “Synthesis and screening of novel 4-N-heterocyclic-2-aryl-6,7,8-trimethoxyquinazolines as antiproliferative and tubulin polymerization inhibitors” (Bioorg Med Chem, 2022).
Calls of active or inactive are those of the source. No cut-off for these calls is given here.

What was measured:
HeLa = experiment: Antiproliferative activity against human HeLa cells assessed as cell growth inhibition incubated for 48 hrs by MTT assay; format: functional, cell-based
HT-29 = experiment: Antiproliferative activity against human HT-29 cells assessed as cell growth inhibition incubated for 48 hrs by MTT assay; format: functional, cell-based; settings: HT-29, 48 h
MCF7 [1] = experiment: Antiproliferative activity against human MCF7 cells assessed as cell growth inhibition incubated for 48 hrs by MTT assay; format: functional, cell-based; settings: MCF7, 48 h
[2] = Cytotoxicity against human HEK293T cells assessed as cell growth inhibition incubated for 48 hrs by MTT assay; format: toxicity, cell-based, HEK-293T
MCF7 [3] = experiment: Induction of cell cycle arrest in human MCF7 cells assessed as accumulation of cells at G2/M phase at 10 uM incubated for 48 hrs by propidium iodide staining based flow cytometer analysis (reference value: 31.9 %); format: functional
MCF7 [4] = experiment: Induction of apoptosis in human MCF7 cells assessed as late apoptotic cells at 10 uM incubated for 48 hrs by Annexin V-FITC/propidium iodide staining based flow cytometric analysis (reference value: 3.4 %); format: functional
MCF7 [5] = experiment: Induction of cell cycle arrest in human MCF7 cells assessed as accumulation of cells at G1/G0 phase at 10 uM incubated for 48 hrs by propidium iodide staining based flow cytometer analysis (reference value: 53.8 %); format: functional
MCF7 [6] = experiment: Induction of apoptosis in human MCF7 cells assessed as early apoptotic cells at 10 uM incubated for 48 hrs by Annexin V-FITC/propidium iodide staining based flow cytometric analysis (reference value: 2.4 %); format: functional
MCF7 [7] = experiment: Induction of apoptosis in human MCF7 cells assessed as necrotic cells at 10 uM incubated for 48 hrs by Annexin V-FITC/propidium iodide staining based flow cytometric analysis (reference value: 1.3 %); format: functional
MCF7 [8] = experiment: Induction of cell cycle arrest in human MCF7 cells assessed as accumulation of cells at S phase at 10 uM incubated for 48 hrs by propidium iodide staining based flow cytometer analysis (reference value: 14.6 %); format: functional
MCF7 [9] = experiment: Induction of apoptosis in human MCF7 cells assessed as viable cells at 10 uM incubated for 48 hrs by Annexin V-FITC/propidium iodide staining based flow cytometric analysis; format: functional; settings: read-out: Activity
Tubulin (Sus scrofa) [10] = molecular target: T1, Tubulin (Sus scrofa) (UniProt P02554+P02550); experiment: Inhibition of porcine brain tubulin polymerization at 3 uM incubated for 60 mins in presence of GTP by spectrophotometric analysis; format: tissue-based
T1 sequence (P02550 whole entry, looked up): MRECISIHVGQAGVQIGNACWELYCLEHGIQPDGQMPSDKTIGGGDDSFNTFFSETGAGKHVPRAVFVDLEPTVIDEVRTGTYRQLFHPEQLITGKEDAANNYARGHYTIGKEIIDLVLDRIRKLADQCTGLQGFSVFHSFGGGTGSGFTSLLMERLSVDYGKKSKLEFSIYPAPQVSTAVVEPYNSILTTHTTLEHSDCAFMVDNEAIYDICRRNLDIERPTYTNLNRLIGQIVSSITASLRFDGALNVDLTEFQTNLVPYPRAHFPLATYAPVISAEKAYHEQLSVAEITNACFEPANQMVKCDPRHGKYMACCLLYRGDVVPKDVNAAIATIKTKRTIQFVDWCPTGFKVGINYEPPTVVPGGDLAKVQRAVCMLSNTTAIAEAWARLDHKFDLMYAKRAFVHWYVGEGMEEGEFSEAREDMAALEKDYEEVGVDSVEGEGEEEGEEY
T1 sequence (P02554 whole entry, looked up): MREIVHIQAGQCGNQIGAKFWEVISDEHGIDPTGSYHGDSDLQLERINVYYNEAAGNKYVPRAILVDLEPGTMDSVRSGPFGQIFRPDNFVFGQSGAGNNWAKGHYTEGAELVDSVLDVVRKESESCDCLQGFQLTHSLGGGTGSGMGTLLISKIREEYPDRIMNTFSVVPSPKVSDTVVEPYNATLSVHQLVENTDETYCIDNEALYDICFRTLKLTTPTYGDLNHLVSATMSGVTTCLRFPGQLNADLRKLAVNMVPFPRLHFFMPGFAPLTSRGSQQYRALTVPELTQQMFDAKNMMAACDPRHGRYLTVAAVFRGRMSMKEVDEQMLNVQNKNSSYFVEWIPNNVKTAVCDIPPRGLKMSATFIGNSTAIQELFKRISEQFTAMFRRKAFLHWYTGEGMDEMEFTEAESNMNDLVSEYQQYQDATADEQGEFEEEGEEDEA

Cell membrane = experiment: Induction of mitochondrial membrane potential depolarization in human MCF7 cells at 10 uM incubated for 48 hrs by JC-1 staining based microplate reader assay; format: subcellular
Tubulin (Sus scrofa) [11] = molecular target: T1, Tubulin (Sus scrofa); experiment: Inhibition of porcine brain tubulin polymerization incubated for 60 mins in presence of GTP by spectrophotometric analysis; format: tissue-based
Tubulin (Sus scrofa) [12] = molecular target: T1, Tubulin (Sus scrofa); experiment: Inhibition of porcine brain tubulin polymerization at 100 nM incubated for 60 mins in presence of GTP by spectrophotometric analysis; format: tissue-based

| SMILES | IC50 (HeLa) | IC50 (HT-29) | IC50 (MCF7 [1]) | IC50 at 48 h [2] | other results |
| --- | --- | --- | --- | --- | --- |
| COc1ccc(-c2nc(-n3ccnc3)c3cc(OC)c(OC)c(OC)c3n2)cc1OC | 18.7 µM | > 25 µM | 22.1 µM | > 25 µM |  |
| COc1cc2c(-n3nnc4ccccc43)nc(-c3ccc(Br)cc3)nc2c(OC)c1OC | 10.2 µM | > 25 µM | 15.2 µM | > 25 µM |  |
| COc1cc2c(-n3cnnc3)nc(-c3ccc(Cl)cc3)nc2c(OC)c1OC | 13.3 µM | > 25 µM | 8.33 µM | > 25 µM |  |
| COc1cc2c(-n3cnnc3)nc(-c3ccc(Br)cc3)nc2c(OC)c1OC | > 25 µM | > 25 µM | 8.59 µM | > 25 µM |  |
| COc1cc2c(-n3cnnc3)nc(-c3ccccc3)nc2c(OC)c1OC | > 25 µM | > 25 µM | > 25 µM | > 25 µM |  |
| COc1cc2c(N3CCOCC3)nc(-c3ccccc3)nc2c(OC)c1OC | > 25 µM | > 25 µM | > 25 µM | > 25 µM |  |
| COc1cc2c(c(OC)c1OC)-c1ccc(OC)c(=O)cc1[C@@H](NC(C)=O)CC2 [COLCHICINE] | 17.8 µM |  |  | > 25 µM | Activity (MCF7 [3]): 89.4%; Activity (MCF7 [4]): 54%; Activity (MCF7 [5]): 5.4%; Activity (MCF7 [6]): 15.5%; Activity (MCF7 [7]): 2.8%; Activity (MCF7 [8]): 4.1%; viability at 10 µM (MCF7 [9]): 27.7% |
| COc1cc(-c2nc(-n3cnnc3)c3cc(OC)c(OC)c(OC)c3n2)cc(OC)c1OC | > 25 µM | 5.45 µM | 23.4 µM | > 25 µM |  |
| COc1cc2c(-n3ccnc3)nc(-c3ccccc3)nc2c(OC)c1OC | 14.7 µM | 15.2 µM | 12.2 µM | > 25 µM |  |
| COc1ccc(-c2nc(-n3cnnc3)c3cc(OC)c(OC)c(OC)c3n2)cc1 | 10.3 µM | > 25 µM | > 25 µM | > 25 µM |  |
| COc1cc(-c2nc(-n3nnc4ccccc43)c3cc(OC)c(OC)c(OC)c3n2)cc(OC)c1OC | > 25 µM | > 25 µM | > 25 µM | > 25 µM |  |
| CC(=O)O[C@H]1C(=O)[C@@]2(C)[C@H]([C@H](OC(=O)c3ccccc3)[C@]3(O)C[C@H](OC(=O)[C@H](O)[C@@H](NC(=O)c4ccccc4)c4ccccc4)C(C)=C1C3(C)C)[C@]1(OC(C)=O)CO[C@@H]1C[C@@H]2O |  |  |  |  | inhibition (Tubulin (Sus scrofa) [10]): Active |
| COc1cc2c(-n3ccnc3)nc(-c3ccc(Br)cc3)nc2c(OC)c1OC | 17.4 µM | 6.76 µM | 6.37 µM | > 25 µM | Activity (MCF7 [3]): 17.7%; Activity (MCF7 [4]): 70.9%; Activity (MCF7 [5]): 70.3%; Activity (MCF7 [6]): 9.4%; Activity (Cell membrane): inactive; Activity (MCF7 [7]): 7.9%; Activity (MCF7 [8]): 8.5%; viability at 10 µM (MCF7 [9]): 11.8% |
| COc1cc2c(-n3cnnc3)nc(-c3ccccc3C(F)(F)F)nc2c(OC)c1OC | > 25 µM | 11.8 µM | 13.7 µM | > 25 µM |  |
| COc1cc2c(-n3nnc4ccccc43)nc(-c3ccccc3)nc2c(OC)c1OC | > 25 µM | 23.1 µM | 14.4 µM | > 25 µM |  |
| COc1cc2c(-n3ccnc3)nc(-c3ccc(Cl)cc3)nc2c(OC)c1OC | 8.53 µM | 10.4 µM | 2.16 µM | > 25 µM | inhibition (Tubulin (Sus scrofa) [11]): Dose-Dependent Effect; Activity (MCF7 [3]): 82.6%; inhibition (Tubulin (Sus scrofa) [12]): Active; Activity (MCF7 [4]): 41.1%; Activity (MCF7 [5]): 11.5%; Activity (MCF7 [6]): 19.9%; Activity (Cell membrane): Active; Activity (MCF7 [7]): 4.1%; Activity (MCF7 [8]): 4.9%; viability at 10 µM (MCF7 [9]): 34.9% |
| COc1cc2c(-n3nnc4ccccc43)nc(-c3ccc(Cl)cc3)nc2c(OC)c1OC | > 25 µM | 13 µM | 16.2 µM | > 25 µM |  |
| COc1ccc(-c2nc(-n3nnc4ccccc43)c3cc(OC)c(OC)c(OC)c3n2)cc1 | > 25 µM | > 25 µM | 18.1 µM | > 25 µM |  |
